Experimental data from patent US20060069132A1, “Azolecarboxamide herbicides” (priority 2004, published 2006).

Experiments:
[1] = test system: downy bromegrass; assay: Test C postemergence herbicide test; assay type: in vivo, Bromus tectorum
Summary of the method: (§1)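 After a postemergence application at 1 to 4 leaves (plants 2–18 cm high), or at 2 leaves for barnyardgrass in flooded paddy, plants stayed in the greenhouse for 12 to 14 days. Damage was then judged visually relative to control plants, with 100 indicating complete control.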

[2] = test system: wild oat; assay: Test C postemergence herbicide test; assay type: in vivo, Avenafatua
Summary of the method: as §1

[3] = test system: woolly cupgrass; assay: Test C pre-/postemergence herbicide test; assay type: in vivo, Eriochloa villosa
Summary of the method: (§2)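 Emerged plants at the 1- to 4-leaf stage (2–18 cm), or freshly planted seeds, received test chemicals in a non-phytotoxic solvent mixture with surfactant. Response was visually scored against controls after 12 to 14 days in the greenhouse, on a 0 (no effect) to 100 (complete control) scale.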

[4] = test system: johnsongrass; assay: Test C pre-/postemergence herbicide test; assay type: in vivo, Sorghum halepense
Summary of the method: as §2

[5] = test system: wheat; assay: Test C postemergence herbicide test; assay type: in vivo, Triticum aestivum
Summary of the method: as §1

[6] = test system: barnyardgrass; assay: Test A pre-/postemergence herbicide test; assay type: in vivo, Echinochloa crus-galli
Summary of the method: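 Both application timings were run together: directed soil spray over freshly planted seeds in sandy loam, and runoff spray onto 2–10 cm seedlings. Evaluation after ~10 days in greenhouse used a 0–100 visual scale versus untreated controls.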

[7] = test system: Italian ryegrass; assay: Test C postemergence herbicide test; assay type: in vivo, Lolium multiflorum
Summary of the method: as §1

[8] = test system: Surinam grass; assay: Test C pre-/postemergence herbicide test; assay type: in vivo, Urochloa decumbens
Summary of the method: as §2

[9] = test system: rice; assay: Test C flooded paddy test; assay type: in vivo, Oryza sativa; conditions: for Plant response rating, Rice: 500 g ai/ha, visual rating after 12 to 14 days
Summary of the method: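 Injury scored visually against controls on a 0 (no effect) to 100 (complete control) scale, 12 to 14 days after treatment in greenhouse. Flooded paddy plants treated at 2-leaf stage; postemergence plants at 1- to 4-leaf stage, 2 to 18 cm tall.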

[10] = test system: corn; assay: Test C pre-/postemergence herbicide test; assay type: in vivo, Zea mays
Summary of the method: as §2

[11] = test system: kochia; assay: Test C pre-/postemergence herbicide test; assay type: in vivo, Kochia scoparia
Summary of the method: as §2

[12] = test system: cocklebur; assay: Test C pre-/postemergence herbicide test; assay type: in vivo, Xanthium strumarium
Summary of the method: as §2

[13] = test system: lambsquarters; assay: Test C pre-/postemergence herbicide test; assay type: in vivo, Chenopodium album
Summary of the method: as §2

[14] = test system: chickweed; assay: Test C postemergence herbicide test; assay type: in vivo, Stellaria media
Summary of the method: as §1

[15] = test system: eastern black nightshade; assay: Test C pre-/postemergence herbicide test; assay type: in vivo, Solanum ptycanthum; conditions: preemergence
Summary of the method: as §2

[16] = test system: common (oilseed) sunflower; assay: Test C pre-/postemergence herbicide test; assay type: in vivo, Helianthus annuus; conditions: preemergence
Summary of the method: as §2

[17] = Postemergence, 500 g ai/ha, scale 0 to 100
[18] = Postemergence, 250 g ai/ha, scale 0 to 100, 0 no effect, 100 complete control
[19] = postemergence, 125 g ai/ha, scale 0 to 100
[20] = postemergence, 62 g ai/ha, scale 0 to 100
[21] = Postemergence, 500 g ai/ha, 0 to 100 scale, 0 no effect, 100 complete control
[22] = Postemergence, 2000 g ai/ha, 0 to 100 scale, 0 no effect, 100 complete control
[23] = Preemergence, 2000 g ai/ha, visual rating, 0 to 100 scale (0 no effect, 100 complete control)
[24] = 125 g ai/ha, scale 0 to 100 (0 no effect, 100 complete control)
[25] = 250 g ai/ha, scale of 0 to 100, 0 is no effect, 100 is complete control
[26] = scale 0 to 100 (0 no effect, 100 complete control)
[27] = 125 g ai/ha, scale 0 (no effect) to 100 (complete control), visual, 12 to 14 days, preemergence
[28] = 250 g ai/ha, scale 0 to 100 (0 no effect, 100 complete control), visual, 12 to 14 days, preemergence
[29] = 125 g ai/ha, scale 0 (no effect) to 100 (complete control), visual, 12 to 14 days
[30] = postemergence, 31 g ai/ha, scale 0 to 100

SMILES: CCn1nc(C(C)(C)C)cc1C(=O)Nc1cccc(OC(F)(F)F)c1 [Compound 272]
- Bromegrass, Downy plant response rating [1, 17]: 65
- Plant response rating, Bromegrass, Downy [1, 18]: 60
- Plant response rating, Bromegrass, Downy [1, 19]: 55
- Plant response rating, Bromegrass, Downy [1, 20]: 30
- Oat, Wild plant response rating [2, 17]: 65
- Plant response rating, Oat, Wild [2, 18]: 55
- Plant response rating, Oat, Wild [2, 19]: 45
- Plant response rating, Oat, Wild [2, 20]: 40
- Cupgrass, Woolly plant response rating [3, 17]: 65
- Plant response rating, Cupgrass, Woolly [3, 18]: 60
- Plant response rating, Cupgrass, Woolly [3, 19]: 40
- Plant response rating, Cupgrass, Woolly [3, 20]: 25
- Johnsongrass plant response rating [4, 17]: 55
- Plant response rating, Johnsongrass [4, 18]: 45
- Plant response rating, Johnsongrass [4, 19]: 40
- Plant response rating, Johnsongrass [4, 20]: 10
- Wheat plant response rating [5, 17]: 35
- Plant response rating, Wheat [5, 18]: 35
- Plant response rating, Wheat [5, 19]: 35
- Plant response rating, Wheat [5, 20]: 30
- Barnyardgrass plant response rating [6, 21]: 55
- Plant response rating, Barnyardgrass [6, 22]: 90
- Barnyardgrass plant response rating [6, 23]: 100
- Barnyardgrass plant response rating ([6]; preemergence, 500 g ai/ha, visual injury, 0 to 100 scale (0 no effect, 100 complete control)): 70
- Ryegrass, Italian plant response rating [7, 17]: 60
- Plant response rating, Ryegrass, Italian [7, 18]: 45
- Plant response rating, Ryegrass, Italian [7, 19]: 45
- Plant response rating, Ryegrass, Italian [7, 20]: 30
- Surinam Grass plant response rating [8, 17]: 60
- Plant response rating, Surinam Grass [8, 18]: 35
- Plant response rating, Surinam Grass [8, 19]: 10
- Plant response rating, Surinam Grass [8, 20]: 5
- Rice plant response rating ([9]; 62 g ai/ha, scale 0 to 100): 0
- Rice plant response rating [9, 24]: 10
- Rice plant response rating [9, 25]: 15
- Plant response rating, Rice [9, 26]: 20
- Corn plant response rating [10, 17]: 20
- Plant response rating, Corn [10, 18]: 15
- Plant response rating, Corn [10, 19]: 15
- Plant response rating, Corn [10, 20]: 10
- Kochia plant response rating [11, 17]: 100
- Plant response rating, Kochia [11, 18]: 100
- Plant response rating, Kochia [11, 19]: 100
- Plant response rating, Kochia [11, 20]: 95
- Cocklebur plant response rating [12, 17]: 95
- Plant response rating, Cocklebur [12, 18]: 60
- Plant response rating, Cocklebur [12, 19]: 60
- Plant response rating, Cocklebur [12, 20]: 15
- Lambsquarters plant response rating [13, 17]: 100
- Plant response rating, Lambsquarters [13, 18]: 100
- Plant response rating, Lambsquarters [13, 19]: 100
- Plant response rating, Lambsquarters [13, 20]: 100
- Chickweed plant response rating [14, 17]: 100
- Plant response rating, Chickweed [14, 18]: 100
- Plant response rating, Chickweed [14, 19]: 100
- Plant response rating, Chickweed [14, 20]: 95

SMILES: CCn1nc(C(C)(C)C)cc1C(=O)Nc1cccc(C#N)c1 [Compound 139]
- Plant response rating (0 = no effect, 100 = complete control), Cupgrass, Woolly ([3]; 62 g ai/ha, preemergence): 0
- Plant response rating, Cupgrass, Woolly [3, 27]: 10
- Plant response rating, Cupgrass, Woolly [3, 28]: 55
- Plant response rating, Cupgrass, Woolly [3, 18]: 5
- Plant response rating, Cupgrass, Woolly [3, 19]: 0
- Plant response rating, Cupgrass, Woolly [3, 20]: 0
- Plant response rating (0 = no effect, 100 = complete control), Johnsongrass ([4]; 62 g ai/ha, preemergence): 20
- Plant response rating, Johnsongrass [4, 27]: 30
- Plant response rating, Johnsongrass [4, 18]: 0
- Plant response rating, Johnsongrass [4, 19]: 0
- Plant response rating, Johnsongrass [4, 20]: 0
- Plant response rating (0 = no effect, 100 = complete control), Nightshade ([15]; 62 g ai/ha): 95
- Plant response rating, Nightshade [15, 29]: 100
- Barnyardgrass plant response rating [6, 21]: 35
- Plant response rating, Barnyardgrass [6, 22]: 60
- Barnyardgrass plant response rating ([6]; Preemergence, 500 g ai/ha, visual rating, 0 to 100 scale (0 no effect, 100 complete control)): 40
- Barnyardgrass plant response rating [6, 23]: 60
- Plant response rating (0 = no effect, 100 = complete control), Surinam Grass ([8]; 62 g ai/ha, preemergence): 0
- Plant response rating, Surinam Grass [8, 27]: 20
- Plant response rating, Surinam Grass [8, 18]: 0
- Plant response rating, Surinam Grass [8, 19]: 0
- Plant response rating, Surinam Grass [8, 20]: 0
- Rice plant response rating ([9]; 62 g ai/ha, scale 0 to 100 (0 no effect, 100 complete control)): 0
- Rice plant response rating [9, 24]: 35
- Rice plant response rating [9, 25]: 45
- Plant response rating, Rice [9, 26]: 60
- Plant response rating (0 = no effect, 100 = complete control), Corn ([10]; 62 g ai/ha, preemergence): 0
- Plant response rating, Corn [10, 27]: 0
- Plant response rating, Corn [10, 28]: 15
- Plant response rating, Corn [10, 18]: 10
- Plant response rating, Corn [10, 19]: 10
- Plant response rating, Corn [10, 20]: 0
- Plant response rating (0 = no effect, 100 = complete control), Kochia ([11]; 62 g ai/ha, preemergence): 100
- Plant response rating, Kochia [11, 27]: 100
- Plant response rating, Kochia [11, 18]: 50
- Plant response rating, Kochia [11, 19]: 50
- Plant response rating, Kochia [11, 20]: 50
- Plant response rating (0 = no effect, 100 = complete control), Cocklebur ([12]; 62 g ai/ha, preemergence): 0
- Plant response rating, Cocklebur [12, 27]: 0
- Plant response rating, Cocklebur [12, 28]: 0
- Plant response rating, Cocklebur [12, 18]: 10
- Plant response rating, Cocklebur [12, 19]: 10
- Plant response rating, Cocklebur [12, 30]: 5
- Plant response rating, Cocklebur [12, 20]: 5
- Plant response rating (0 = no effect, 100 = complete control), Lambsquarters ([13]; 62 g ai/ha, preemergence): 100
- Plant response rating, Lambsquarters [13, 27]: 100
- Plant response rating, Chickweed [14, 18]: 80
- Plant response rating, Chickweed [14, 19]: 70
- Plant response rating, Chickweed [14, 30]: 0
- Plant response rating, Chickweed [14, 20]: 0
- Plant response rating (0 = no effect, 100 = complete control), Sunflower ([16]; 62 g ai/ha): 0
- Plant response rating, Sunflower [16, 29]: 10
